From PMC6843832, “Synthesis of Novel Analogs of Thieno[2,3-d] Pyrimidin-4(3H)-ones as Selective Inhibitors of Cancer Cell Growth” (Biomolecules, 2019) come the findings set out here.

One series in a line: MTT assay, HL-7702 cells. The class given is cell-based, human. The conditions noted are these: HL-7702 cells (normal liver cells); normal human liver cells, MTT, 72 h; read-out: Cytotoxic activity (IC50) HL-7702. The procedure:
(§1) Primary human liver HL-7702 cells were purchased from SIBS (Shanghai Institutes for Biological Sciences, Shanghai, China) while MCF-7, A549, PC-9 and PC-3 cells were from ATCC (American Type Culture Collection, Rockville, MD, USA). HL-7702, PC-9 and A549 cells were incubated with Roswell Park Memorial Institute (RPMI) 1640 medium and MCF-7 were cultured in Dulbecco’s Modified Eagle’s Medium (DMEM) supplemented with 10% heat-inactivated fetal bovine serum (FBS) and 1% antibiotics (penicillin and streptomycin). PC-3, a human prostate adenocarcinoma cell, was maintained in Ham’s F-12 Medium supplemented with 10% FBS, 1% penicillin/streptomycin and 1% glutamine. All cells were cultured at 37 °C in an incubator containing 5% CO2. The cell viability was determined by using the MTT (methyl thiazolyl tetrazolium bromide) assay. Briefly, cells were seeded in 96-well plates (4 × 10^3 cells/well) overnight and exposed to the synthesized compounds with various concentrations. Camptothecin and dimethyl sulfoxide (DMSO) served as a positive control and a negative control respectively. After 72 h of incubation, 20 μL of MTT (5 mg/mL in phosphate buffer saline (PBS)) were added into each well. Dissolved yellowish MTT is converted to an insoluble purple formazan during incubation (4 h). In order to dissolve the formazan crystals, 100 μL of lysis solution (10% SDS (sodium dodecyl sulfate)-5% isobutyl alcohol-0.01M HCl) was added into per well. Finally, the optical density (OD) of solution in the plates was measured using a microplate reader at 570 nm after dissolving overnight. Cell viability was calculated by using the following formula: […].

For another series, the system named is PC-3 cells. Kind of series: MTT assay, PC-3 cells. The conditions noted are these: human prostate cancer cells, 72 h, read-out: Cytotoxic activity (IC50) PC-3. Format: cell-based. As for the experimental part: as §1
For the next series, the system named is PC-9 cells. Kind of series: MTT assay, PC-9 cells. Format: cell-based. The conditions noted are these: human non-small cell lung cancer cells, 72 h, read-out: Cytotoxic activity (IC50) PC-9. The procedure: as §1
A further series has as its system MCF-7 cells. Briefly: MTT assay, MCF-7 cells. Format: cell-based. The conditions noted are these: MCF7, human breast cancer cells, 72 h, read-out: Cytotoxic activity (IC50) MCF-7. The procedure: as §1
The test system of another series is A549 cells. Briefly: MTT assay, A549 cells. The class given is cell-based. The conditions noted are these: human non-small cell lung cancer cells, read-out: Cytotoxic activity (IC50) A549. The procedure:
as §1

Read-outs that look alike come from different tables or passages of the source.

For `O=c1c2c3c(sc2nc(-c2cccs2)n1CCc1ccc(O)cc1)CCCC3` [Compound 12], the IC50 at 72 h in “MTT assay, HL-7702 cells” was > 100 µM. For the same compound, the IC50 in the series on PC-3 cells was found to be 21.9 ± 1.76 µM; in the series on PC-9 cells, 54.2 ± 2.06 µM; with MCF-7 cells, 36.4 ± 1.41 µM; with A549 cells (Homo sapiens, A549, 72 h), 11.7 ± 0.12 µM.
Regarding `Cc1cc(-c2nc3sc4c(c3c(=O)n2Cc2ccccc2)CCCCC4)sc1C` [Compound 13], the half-maximal inhibitory concentration (IC50) at 72 h in “MTT assay, HL-7702 cells” was > 100 µM. Besides, the IC50 was 92.5 ± 1.89 µM in the series with PC-3 cells; > 100 µM in the series on PC-9 cells; 75.94 ± 0.17 µM in the series with MCF-7 cells; 49.86 ± 0.3 µM in the series with A549 cells (Homo sapiens, A549, 72 h).
On to `Cc1cc(-c2nc3sc4c(c3c(=O)n2CCc2ccc(O)cc2)CCCCC4)sc1C` [Compound 14], for which the melting point fell in the range of 186 to 188 °C. Besides, the IC50 at 72 h in “MTT assay, HL-7702 cells” is 68.64 ± 0.26 µM. Moreover, in the series with PC-3 cells, the IC50 is 84.68 ± 0.48 µM. The half-inhibitory concentration (IC50) with PC-9 cells was determined as 86.33 ± 0.22 µM. The half-maximal inhibitory concentration (IC50) with MCF-7 cells came to 46.1 ± 0.48 µM. The IC50 with A549 cells (Homo sapiens, A549, 72 h) came to 49.8 ± 0.68 µM.
`O=c1c2c3c(sc2nc(-c2ccc(Cl)cc2)n1Cc1ccccc1)CCCCC3` [Compound 16] yielded a melting point of 170 to 172 °C. Further, the 50% inhibitory concentration (IC50) at 72 h in the series “MTT assay, HL-7702 cells” was > 100 µM. Moreover, the 50% inhibitory concentration (IC50) with PC-3 cells is > 100 µM. The half-inhibitory concentration (IC50) in the series with PC-9 cells is > 100 µM. Also, the 50% inhibitory concentration (IC50) with MCF-7 cells is > 100 µM. Besides, the IC50 in the series on A549 cells (Homo sapiens, A549, 72 h) is 81 ± 1.04 µM.
Compound `O=c1c2c3c(sc2nc(-c2ccc(F)cc2)n1Cc1ccccc1)CCCCC3` [Compound 17] returned a melting point of 146 to 148 °C. In addition, the concentration for half-maximal inhibition (IC50) at 72 h in the series “MTT assay, HL-7702 cells” is > 100 µM. Further, the half-maximal inhibitory concentration (IC50) in the series with PC-3 cells is > 100 µM. Besides, the IC50 in the series with PC-9 cells is > 100 µM. Also, in the series with MCF-7 cells, the IC50 is > 100 µM. The half-inhibitory concentration (IC50) with A549 cells (Homo sapiens, A549, 72 h) is > 100 µM.
For the compound `Cc1ccc(-c2nc3sc4c(c3c(=O)n2Cc2ccccc2)CCCCC4)o1` [Compound 18], the IC50 at 72 h in “MTT assay, HL-7702 cells” was > 100 µM. In addition, the IC50 was found to be 92 ± 2.34 µM with PC-3 cells; 58.28 ± 0.18 µM in the series on PC-9 cells; 96.36 ± 0.72 µM with MCF-7 cells; 63.2 ± 0.03 µM in the series on A549 cells (Homo sapiens, A549, 72 h).
Take `O=c1c2c3c(sc2nc(-c2ccc(Cl)cc2)n1CCc1ccc(O)cc1)CCCCC3` [Compound 19]: the concentration for half-maximal inhibition (IC50) at 72 h in the series “MTT assay, HL-7702 cells” worked out at 19.16 ± 0.06 µM. In addition, the IC50 in the series on PC-3 cells is 25.1 ± 0.37 µM; with PC-9 cells, 26.7 ± 1.38 µM; in the series with MCF-7 cells it was 13.04 ± 0.11 µM; in the series with A549 cells (Homo sapiens, A549, 72 h), < 10 µM; in the series on A549 cells (72 h), 6.26 ± 0.87 µM.
`Cc1sc2nc(-c3cccs3)n(Cc3ccccc3)c(=O)c2c1C` [Compound 20] registered a melting point of 162 to 164 °C. Further, in “MTT assay, HL-7702 cells”, the IC50 at 72 h was > 100 µM. In the series with PC-3 cells, the 50% inhibitory concentration (IC50) was > 100 µM. Further, the concentration for half-maximal inhibition (IC50) with PC-9 cells is > 100 µM. Further, the IC50 in the series with MCF-7 cells is > 100 µM. The concentration for half-maximal inhibition (IC50) in the series on A549 cells (Homo sapiens, A549, 72 h) stood at 80.1 ± 0.83 µM.
As to `Cc1sc2nc(-c3ccc(F)cc3)n(Cc3ccccc3)c(=O)c2c1C` [Compound 21], in “MTT assay, HL-7702 cells”, the IC50 at 72 h was > 100 µM. Further, the 50% inhibitory concentration (IC50) with PC-3 cells was > 100 µM; in the series with PC-9 cells, > 100 µM; in the series with MCF-7 cells it was > 100 µM; in the series with A549 cells (Homo sapiens, A549, 72 h) it was > 100 µM.
The compound `Cc1sc2nc(-c3ccccc3)n(CCc3ccc(O)cc3)c(=O)c2c1C` [Compound 22] came in with a melting point of 251 to 253 °C. In addition, the IC50 at 72 h in the series “MTT assay, HL-7702 cells” was > 100 µM. Also, the IC50 in the series with PC-3 cells is > 100 µM. The 50% inhibitory concentration (IC50) in the series with PC-9 cells is > 100 µM. In addition, the IC50 in the series with MCF-7 cells came to 21.9 ± 0.82 µM. In addition, the IC50 in the series on A549 cells (Homo sapiens, A549, 72 h) was > 100 µM.
As to `Cc1sc2nc(-c3ccc(Cl)cc3)n(CCc3ccc(O)cc3)c(=O)c2c1C` [Compound 23], the IC50 at 72 h in “MTT assay, HL-7702 cells” was > 100 µM. In addition, the IC50 in the series with PC-3 cells was > 100 µM; in the series on PC-9 cells, > 100 µM; in the series with MCF-7 cells, 70.64 ± 0.59 µM; with A549 cells (Homo sapiens, A549, 72 h), 46.14 ± 0.17 µM.
With `Cc1ccc(-c2nc3sc4c(c3c(=O)n2CCc2ccc(O)cc2)CCOC4)cc1` [Compound 24], the half-maximal inhibitory concentration (IC50) at 72 h in the series “MTT assay, HL-7702 cells” is > 100 µM. Moreover, the concentration for half-maximal inhibition (IC50) is > 100 µM with PC-3 cells; > 100 µM with PC-9 cells; > 100 µM with MCF-7 cells; 32.9 ± 1.84 µM in the series with A549 cells (Homo sapiens, A549, 72 h).
`O=c1c2c3c(sc2nc(-c2cccc(Cl)c2)n1Cc1ccccc1)COCC3` [Compound 25]: the IC50 at 72 h in the series “MTT assay, HL-7702 cells” was > 100 µM. The IC50 in the series on PC-3 cells is 94.2 ± 1.83 µM; in the series on PC-9 cells, > 100 µM; in the series on MCF-7 cells it was > 100 µM; with A549 cells (Homo sapiens, A549, 72 h), 44 ± 0.71 µM.
